Each structure is given as a SMILES string. pIC50: −log10 of the molar value.

Chain of HDM2 protein (Q00987 whole entry): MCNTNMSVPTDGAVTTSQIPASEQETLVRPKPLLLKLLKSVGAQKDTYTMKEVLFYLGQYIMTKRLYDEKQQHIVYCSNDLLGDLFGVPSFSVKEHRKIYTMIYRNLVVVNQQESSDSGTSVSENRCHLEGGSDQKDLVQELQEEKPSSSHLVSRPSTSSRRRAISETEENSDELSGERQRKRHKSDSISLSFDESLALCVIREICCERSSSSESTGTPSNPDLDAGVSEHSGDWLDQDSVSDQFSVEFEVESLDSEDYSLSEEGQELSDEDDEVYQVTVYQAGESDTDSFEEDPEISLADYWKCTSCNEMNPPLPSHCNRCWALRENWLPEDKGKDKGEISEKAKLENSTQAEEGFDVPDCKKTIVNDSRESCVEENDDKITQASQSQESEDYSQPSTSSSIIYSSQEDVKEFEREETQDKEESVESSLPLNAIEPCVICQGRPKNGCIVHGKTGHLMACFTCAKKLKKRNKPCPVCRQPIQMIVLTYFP

The target in this experiment is HDM2 protein (Homo sapiens, UniProt Q00987). Put plainly: fluorescence polarization screening assay (FP IC50). The experiment is classed as binding. As to conditions: class symbols. The protocol:
The compounds were evaluated to determine activity at the HDM2 protein by known methods such as the fluorescence polarization screening assay that measures the inhibitory concentration that achieves 50% of maximal activity (FP IC50) and the dissociation constant for inhibitor binding (FP Ki). [Zhang et al., J. Analytical Biochemistry 331: 138-146 (2004)].
Background: In fluorescence polarisation assays a small probe gives low polarisation when free and higher when bound to something large.
As usually defined, the pIC50 is −log10 of the IC50, conventionally taken in molar units. For `CCC[C@H]1N(C(=O)c2ncccc2C(F)(F)F)CCC[C@@]1(Oc1csc(C(F)(F)F)c1)C(=O)N1CCc2cc(F)ccc2C1CCCO` (stereo partly drawn) [Compound A54, 3-(6-fludro-2-{[(2R,3S)-2-propyl-1-{[3-(trifluoromethyl)pyridin-2-yl]carbonyl}-3-{[5-(trifluoromethyl)thiophen-3-yl]oxy}piperidin-3-yl]carbonyl}-1,2,3,4-tetrahydroisoquinolin-1-yl)propan-1-ol], the negative logarithm of the IC50 (pIC50) is 4.70 to 7.00.

Regarding `CCC[C@H]1N(C(=O)c2ncccc2C(F)(F)F)CCC[C@@]1(Oc1csc(C(F)(F)F)c1)C(=O)N1CCc2cc(Cl)ccc2C1CC(=O)O` (stereo partly drawn) [Compound A55, (6-chloro-2-{[(2R,3S)-2-propyl-1-{[3-(trifluoromethyl)pyridin-2-yl]carbonyl}-3-{[5-(trifluoromethyl)thiophen-3-yl]oxy}piperidin-3-yl]carbonyl}-1,2,3,4-. tetrahydroisoquinolin-1-yl)acetic acid], the pIC50 was 7.00 to 9.00.

Regarding `CCC[C@H]1N(C(=O)c2ncccc2C(F)(F)F)CCC[C@@]1(Oc1csc(C(F)(F)F)c1)C(=O)N1CCc2cc(F)ccc2C1CC(=O)O` (stereo partly drawn) [Compound A56, (6-fluoro-2-{[(2R,3S)-2-propyl-1-{[3-(trifluoromethyl)pyridin-2-yl]carbonyl}-3-{[5-(trifluoromethyl)thiophen-3-yl]oxy}piperidin-3-yl]carbonyl}-1,2,3,4-. tetrahydroisoquinolin-1-yl)acetic acid], the pIC50 was 7.00 to 9.00.

`CCC[C@H]1N(C(=O)c2ncccc2C(F)(F)F)CCC[C@@]1(Oc1csc(C(F)(F)F)c1)C(=O)N1CCc2cc(Br)ccc2C1CCC(=O)O` (stereo partly drawn) [Compound A57, 3-(6-bromo-2-{[(2R,3S)-2-propyl-1-{[3-(trifluoromethyl)pyridin-2-yl]carbonyl}-3-{[5-(trifluoromethyl)thiophen-3-yl]oxy}piperidin-3-yl]carbonyl}-1,2,3,4-tetrahydroisoquinolin-1-yl)propanoic acid] showed a pIC50 of 7.00 to 9.00.

For `CCC[C@H]1N(C(=O)c2ncccc2C(F)(F)F)CCC[C@@]1(Oc1csc(C(F)(F)F)c1)C(=O)N1CCc2cc(Br)ccc2C1CCC(=O)O` (stereo partly drawn) [Compound A58, 3-(6-bromo-2-{[(2R,3S)-2-propyl-1-{[3-(trifluoromethyl)pyridin-2-yl]carbonyl}-3-{[5-(trifluoromethyl)thiophen-3-yl]oxy}piperidin-3-yl]carbonyl}-1,2,3,4-tetrahydroisoquinolin-1-yl)propanoic acid], the pIC50 was 7.00 to 9.00.

In turn, `CCC[C@H]1N(C(=O)c2ncccc2C(F)(F)F)CCC[C@@]1(Oc1csc(C(F)(F)F)c1)C(=O)N1CCc2cc(F)ccc2C1CCC(=O)NCc1nn[nH]n1` (stereo partly drawn) [Compound A59, 3-(6-fluoro-2-{[(2R,3S)-2-propyl-1-{[3-(trifluoromethyl)pyridin-2-yl]carbonyl}-3-{[5-(trifluoromethyl)thiophen-3-yl]oxy}piperidin-3-yl]carbonyl}-1,2,3,4-tetrahydroisoquinolin-1-yl)-N-(2H-tetrazol-5-ylmethyl)propanamide] had a pIC50 of 7.00 to 9.00.

Regarding `CCC[C@H]1N(C(=O)c2ncccc2C(F)(F)F)CCC[C@@]1(Oc1csc(C(F)(F)F)c1)C(=O)N1CCc2cc(F)ccc2C1CCC(=O)NCc1nn[nH]n1` (stereo partly drawn) [Compound A60, 3-(6-fluoro-2-{[(2R,3S)-2-propyl-1-{[3-(trifluoromethyl)pyridin-2-yl]carbonyl}-3-{[5-(trifluoromethyl)thiophen-3-yl]oxy}piperidin-3-yl]carbonyl}-1,2,3,4-tetrahydroisoquinolin-1-yl)-N-(2H-tetrazol-5-ylmethyl)propanamide], the pIC50 is 7.00 to 9.00.

With `CCC[C@H]1N(C(=O)c2ncccc2C(F)(F)F)CCC[C@@]1(Oc1csc(C(F)(F)F)c1)C(=O)N1CCc2cc(Cl)ccc2C1CCC(=O)NS(C)(=O)=O` (stereo partly drawn) [Compound A61, 3-(6-chloro-2-{[(2R,3S)-2-propyl-1-{[3-(trifluoromethyl)pyridin-2-yl]carbonyl}-3-{[5-(trifluoromethyl)thiophen-3-yl]oxy}piperidin-3-yl]carbonyl}-1,2,3,4-tetrahydroisoquinolin-1-yl)-N-(methylsulfonyl) propanamide], the pIC50 was 7.00 to 9.00.

Turning to `CCC[C@H]1N(C(=O)c2ncccc2C(F)(F)F)CCC[C@@]1(Oc1csc(C(F)(F)F)c1)C(=O)N1CCc2cc(-c3ccccc3)ccc2C1` [Compound A62, 6-phenyl-2-{[(2R,3S)-2-propyl-1-{[3-(trifluoromethyl)pyridin-2-yl]carbonyl}-3-{[5-(trifluoromethyl)thiophen-3-yl]oxy}piperidin-3-yl]carbonyl}-1,2,3,4-tetrahydroisoquinoline], the pIC50 is 4.70 to 7.00.

On to `CCC[C@H]1N(C(=O)c2ncccc2C(F)(F)F)CCC[C@@]1(Oc1csc(C(F)(F)F)c1)C(=O)N1CCc2cc(Cl)ccc2C1CCC(=O)NS(C)(=O)=O` (stereo partly drawn) [Compound A63, 3-(6-chloro-2-{[(2R,3S)-2-propyl-1-{[3-(trifluoromethyl)pyridin-2-yl]carbonyl}-3-{[5-(trifluoromethyl)thiophen-3-yl]oxy}piperidin-3-yl]carbonyl}-1,2,3,4-tetrahydroisoquinolin-1-yl)-N-(methylsulfonyl) propanamide], for which the pIC50 is 7.00 to 9.00.

For the compound `CCC[C@H]1N(C(=O)c2ncccc2C(F)(F)F)CCC[C@@]1(Oc1csc(C(F)(F)F)c1)C(=O)N1CCc2cc(Cl)ccc2C1CC(C)(C)C(=O)O` (stereo partly drawn) [Compound A64, 3-(6-chloro-2-{[(2R,3S)-2-propyl-1-{[3-(trifluoromethyl)pyridin-2-yl]carbonyl}-3-{[5-(trifluoromethyl)thiophen-3-yl]oxy}piperidin-3-yl]carbonyl}-1,2,3,4-tetrahydroisoquinolin-1-yl)-2,2-dimethylpropanoic acid], the pIC50 was 7.00 to 9.00.

For `CCC[C@H]1N(C(=O)c2ncccc2C(F)(F)F)CCC[C@@]1(Oc1csc(C(F)(F)F)c1)C(=O)N1CCc2cc(Cl)ccc2C1CC(C)(C)C(=O)O` (stereo partly drawn) [Compound A65, 3-(6-chloro-2-{[(2R,3S)-2-propyl-1-{[3-(trifluoromethyl)pyridin-2-yl]carbonyl}-3-{[5-(trifluoromethyl)thiophen-3-yl]oxy}piperidin-3-yl]carbonyl}-1,2,3,4-tetrahydroisoquinolin-1-yl)-2,2-dimethylpropanoic acid], the pIC50 was 7.00 to 9.00.

The compound `CCC[C@H]1N(C(=O)c2ncccc2C(F)(F)F)CCC[C@@]1(Oc1csc(C(F)(F)F)c1)C(=O)N1CCc2cc(-c3ccsc3)ccc2C1` [Compound A66, 2-{[(2R,3S)-2-propyl-1-{[3-(trifluoromethyl)pyridin-2-yl]carbonyl}-3-{[5-(trifluoromethyl)thiophen-3-yl]oxy}piperidin-3-yl]carbonyl}-6-thiophen-3-yl-1,2,3,4-tetrahydroisoquinoline] gave a pIC50 of 4.70 to 7.00.

Turning to `CCC[C@H]1N(C(=O)c2ncccc2C(F)(F)F)CCC[C@@]1(Oc1csc(C(F)(F)F)c1)C(=O)N1CCc2cc(Cl)ccc2C1CCC(=O)NCc1nn[nH]n1` (stereo partly drawn) [Compound A67, 3-(6-chloro-2-{[(2R,3S)-2-propyl-1-{[3-(trifluoromethyl)pyridin-2-yl]carbonyl}-3-{[5-(trifluoromethyl)thiophen-3-yl]oxy}piperidin-3-yl]carbonyl}-1,2,3,4-tetrahydroisoquinolin-1-yl)-N-(2H-tetrazol-5-ylmethyl)propanamide], the pIC50 was 7.00 to 9.00.

In the case of `CCC[C@H]1N(C(=O)c2ncccc2C(F)(F)F)CCC[C@@]1(Oc1csc(C(F)(F)F)c1)C(=O)N1CCc2cc(Br)ccc2C1CC(=O)O` (stereo partly drawn) [Compound A70, (6-bromo-2-{[(2R,3S)-2-propyl-1-{[3-(trifluoromethyl)pyridin-2-yl]carbonyl}-3-{[5-(trifluoromethyl)thiophen-3-yl]oxy}piperidin-3-yl]carbonyl}-1,2,3,4-tetrahydroisoquinolin-1-yl)acetic acid], the pIC50 is 7.00 to 9.00.

With `CCC[C@H]1N(C(=O)c2ncccc2C(F)(F)F)CCC[C@@]1(Oc1csc(C(F)(F)F)c1)C(=O)N1CCc2cc(Cl)ccc2C1CC(C)(C)C#N` (stereo partly drawn) [Compound A71, 3-(6-chloro-2-{[(2R,3S)-2-propyl-1-{[3-(trifluoromethyl)pyridin-2-yl]carbonyl}-3-{[5-(trifluoromethyl)thiophen-3-yl]oxy}piperidin-3-yl]carbonyl}-1,2,3,4-tetrahydroisoquinolin-1-yl)-2,2-dimethylpropanenitrile], the pIC50 is 4.70 to 7.00.

On to `CCC[C@H]1N(C(=O)c2ncccc2C(F)(F)F)CCC[C@@]1(Oc1csc(C(F)(F)F)c1)C(=O)N1CCc2cc(Br)ccc2C1CC(=O)O` (stereo partly drawn) [Compound A72, (6-bromo-2-{[(2R,3S)-2-propyl-1-{[3-(trifluoromethyl)pyridin-2-yl]carbonyl}-3-{[5-(trifluoromethyl)thiophen-3-yl]oxy}piperidin-3-yl]carbonyl}-1,2,3,4-tetrahydroisoquinolin-1-yl)acetic acid], for which the pIC50 is 7.00 to 9.00.

`CCC[C@H]1N(C(=O)c2ncccc2C(F)(F)F)CCC[C@@]1(Oc1csc(C(F)(F)F)c1)C(=O)N1CCc2cc(Cl)ccc2C1CCCC(=O)O` (stereo partly drawn) [Compound A73, 4-(6-chloro-2-{[(2R,3S)-2-propyl-1-{[3-(trifluoromethyl)pyridin-2-yl]carbonyl}-3-{[5-(trifluoromethyl)thiophen-3-yl]oxy}piperidin-3-yl]carbonyl}-1,2,3,4-tetrahydroisoquinolin-1-yl)butanoic acid] had a pIC50 of 7.00 to 9.00.

For the compound `CCC[C@H]1N(C(=O)c2ncccc2C(F)(F)F)CCC[C@@]1(Oc1csc(C(F)(F)F)c1)C(=O)N1CCc2cc(Cl)ccc2C1CCCC(=O)O` (stereo partly drawn) [Compound A74, 4-(6-chloro-2-{[(2R,3S)-2-propyl-1-{[3-(trifluoromethyl)pyridin-2-yl]carbonyl}-3-{[5-(trifluoromethyl)thiophen-3-yl]oxy}piperidin-3-yl]carbonyl}-1,2,3,4-tetrahydroisoquinolin-1-yl)butanoic acid], the pIC50 is 7.00 to 9.00.

The compound `CCC[C@H]1N(C(=O)c2ncccc2C(F)(F)F)CCC[C@@]1(Oc1csc(C(F)(F)F)c1)C(=O)N1CCc2cc(Cl)ccc2C1C(N)=O` (stereo partly drawn) [Compound A75, 6-chloro-2-{[(2R,3S)-2-propyl-1-{[3-(trifluoromethyl)pyridin-2-yl]carbonyl}-3-{[5-(trifluoromethyl)thiophen-3-yl]oxy}piperidin-3-yl]carbonyl}-1,2,3,4-tetrahydroisoquinoline-1-carboxamide] had a pIC50 of 7.00 to 9.00.

Source of the values: US9062071B2, “Substituted piperidines as HDM2 inhibitors” (Merck Sharp & Dohme Corp, priority 2011, dated 2015).
